The results in this text go back to patent publication US20240316047A1, “INHIBITORS OF RNA HELICASE DHX9 AND USES THEREOF” (ACCENT THERAPEUTICS, INC., priority 2022, published 2024).

In this assay the target is Human recombinant DHX9 protein (Homo sapiens (Human), UniProt Q08211). Nature of the assay: DHX9 ATPase assay (ADP-Glo). The class given is biochemical. The following applies: for IC50: read-out: DHX9 Biochemical Inflection Point. (In general: ADP-Glo first removes unused ATP, then detects ADP through luciferase.)
Sequence of Human recombinant DHX9 protein (Q08211 whole entry): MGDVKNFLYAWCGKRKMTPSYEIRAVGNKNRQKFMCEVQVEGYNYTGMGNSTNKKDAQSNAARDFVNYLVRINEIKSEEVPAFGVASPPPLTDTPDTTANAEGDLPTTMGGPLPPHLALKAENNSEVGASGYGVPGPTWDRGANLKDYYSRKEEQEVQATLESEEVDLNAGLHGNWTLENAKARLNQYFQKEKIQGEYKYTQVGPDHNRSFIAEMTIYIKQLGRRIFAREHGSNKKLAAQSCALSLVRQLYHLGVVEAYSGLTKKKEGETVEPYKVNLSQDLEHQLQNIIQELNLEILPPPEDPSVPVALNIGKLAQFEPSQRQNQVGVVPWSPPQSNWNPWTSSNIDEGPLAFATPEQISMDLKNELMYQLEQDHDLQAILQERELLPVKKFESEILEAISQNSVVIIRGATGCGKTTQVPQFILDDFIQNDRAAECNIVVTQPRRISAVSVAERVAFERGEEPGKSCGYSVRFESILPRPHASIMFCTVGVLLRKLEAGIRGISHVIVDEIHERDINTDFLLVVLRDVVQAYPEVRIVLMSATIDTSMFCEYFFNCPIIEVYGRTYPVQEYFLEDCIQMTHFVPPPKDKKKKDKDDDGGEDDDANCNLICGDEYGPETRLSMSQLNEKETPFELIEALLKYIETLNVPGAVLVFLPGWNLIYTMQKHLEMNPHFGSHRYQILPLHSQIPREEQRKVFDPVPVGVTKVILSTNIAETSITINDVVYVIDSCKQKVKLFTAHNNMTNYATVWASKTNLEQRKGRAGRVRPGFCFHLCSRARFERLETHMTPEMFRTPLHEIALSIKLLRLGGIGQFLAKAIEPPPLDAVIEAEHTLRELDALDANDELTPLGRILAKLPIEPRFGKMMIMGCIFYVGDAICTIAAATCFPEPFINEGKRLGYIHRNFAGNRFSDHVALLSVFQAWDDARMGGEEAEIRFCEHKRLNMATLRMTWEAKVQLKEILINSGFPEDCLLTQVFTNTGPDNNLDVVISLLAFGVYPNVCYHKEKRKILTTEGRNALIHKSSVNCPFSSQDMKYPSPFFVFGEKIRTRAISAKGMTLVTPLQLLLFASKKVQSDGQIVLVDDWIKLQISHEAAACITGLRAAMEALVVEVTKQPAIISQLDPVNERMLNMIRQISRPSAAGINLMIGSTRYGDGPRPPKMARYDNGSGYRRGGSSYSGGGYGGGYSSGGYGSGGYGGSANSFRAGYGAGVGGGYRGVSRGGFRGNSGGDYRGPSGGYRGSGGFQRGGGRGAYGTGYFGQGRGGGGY

Take `CC(C)C(=O)N1CCN(c2ccc(-n3cc(C(=O)Nc4cc(Cl)cc(NS(C)(=O)=O)c4)cn3)nc2)CC1` [Example 149, N-(3-chloro-5-(methylsulfonamido)phenyl)-1-(5-(4-isobutyrylpiperazin-1-yl)pyridin-2-yl)-1H-pyrazole-4-carboxamide]: the “DHX9 Biochemical Max Inhibition” value came to 65.4% and the IC50 was found to be 19.9 nM.
`Cn1cc(C(=O)Nc2cc(Cl)cc(NS(C)(=O)=O)c2)nc1-c1ccccc1` [Example 155, N-(3-chloro-5-(methylsulfonamido)phenyl)-1-methyl-2-phenyl-1H-imidazole-4-carboxamide]: the “DHX9 Biochemical Max Inhibition” value came to 66.4% and the IC50 is 126 nM.
In the same order, the values of `Cc1cccnc1-c1nc(C(=O)Nc2cc(Cl)cc(NS(C)(=O)=O)c2)cn1C` [Example 156] are 51.2% and 695 nM.
On the same counts, the results for `Cn1cc(C(=O)Nc2cc(Cl)cc(NS(C)(=O)=O)c2)cc1N1CCCCC1=O` [Example 158, N-(3-chloro-5-(methylsulfonamido)phenyl)-1-methyl-5-(2-oxopiperidin-1-yl)-1H-pyrrole-3-carboxamide] are 76.5% and 34.5 nM.
As to `CS(=O)(=O)Nc1cc(Br)cc(NC(=O)c2cnn(-c3ccccc3CO)c2)c1` [Example 161, N-(3-bromo-5-(methylsulfonamido)phenyl)-1-(2-(hydroxymethyl)phenyl)-1H-pyrazole-4-carboxamide], the “DHX9 Biochemical Max Inhibition” value is given as 44.9% and the IC50 was determined as 48.4 nM.
Turning to `CS(=O)(=O)Nc1cc(Br)cc(NC(=O)c2cnn(-c3ncccc3N)c2)c1` [Example 162, 1-(3-aminopyridin-2-yl)-N-(3-bromo-5-(methylsulfonamido)phenyl)-1H-pyrazole-4-carboxamide], the “DHX9 Biochemical Max Inhibition” value is 60.5% and the IC50 is 19.7 nM.
On to `CS(=O)(=O)Nc1cc(Cl)cc(NC(=O)c2cc(C(=O)Nc3ccccc3)cs2)c1` [Example 166, N2-(3-chloro-5-(methylsulfonamido)phenyl)-N4-phenylthiophene-2,4-dicarboxamide], for which the “DHX9 Biochemical Max Inhibition” value was 64% and the IC50 came out at 28.5 nM.
Regarding `Cn1cc(C(=O)Nc2cc(Cl)cc(NS(C)(=O)=O)c2)cc1-c1ncc(F)cn1` [Example 171, N-(3-chloro-5-(methylsulfonamido)phenyl)-5-(5-fluoropyrimidin-2-yl)-1-methyl-1H-pyrrole-3-carboxamide], the “DHX9 Biochemical Max Inhibition” value is on record as 61.8% and the IC50 worked out at 14.5 nM.
Turning to `CCOc1cnc(-c2cc(C(=O)Nc3cc(Cl)cc(NS(C)(=O)=O)c3)cn2C)nc1` [Example 172], the “DHX9 Biochemical Max Inhibition” value is recorded as 72.4% and the IC50 amounted to 15.9 nM.
In the case of `CCS(=O)(=O)Nc1cc(Cl)cc(NC(=O)c2cc(-c3ncccn3)n(C)c2)c1` [Example 173, N-(3-chloro-5-(ethylsulfonamido)phenyl)-1-methyl-5-(pyrimidin-2-yl)-1H-pyrrole-3-carboxamide], the “DHX9 Biochemical Max Inhibition” value is listed as 61.3% and the IC50 came to 8.6 nM.
On the same counts, the results for `Cn1cc(C(=O)Nc2cc(Cl)cc(NS(C)(=O)=O)c2)cc1-c1ncccc1OCc1cncc(F)c1` [Example 174, N-(3-chloro-5-(methylsulfonamido)phenyl)-5-(3-((5-fluoropyridin-3-yl)methoxy)pyridin-2-yl)-1-methyl-1H-pyrrole-3-carboxamide] are 75.8% and 1.8 nM.
For the compound `CS(=O)(=O)Nc1cc(Cl)cc(NC(=O)c2cc(-c3ccccn3)c(C3CC3)s2)c1` [Example 177, N-(3-chloro-5-(methylsulfonamido)phenyl)-5-cyclopropyl-4-(pyridin-2-yl)thiophene-2-carboxamide], the “DHX9 Biochemical Max Inhibition” value came out at 77% and the IC50 was determined as 21.6 nM.
On the same counts, the results for `CS(=O)(=O)Nc1cc(Cl)cc(NC(=O)c2cnn(-c3ncccc3OCc3cccc(O)c3)c2)c1` [Example 179] are 72.3% and 27.2 nM.
For the compound `CS(=O)(=O)Nc1cc(Cl)cc(NC(=O)c2cnn(-c3ccc(N4CCOCC4=O)cn3)c2)c1` [Example 180], the “DHX9 Biochemical Max Inhibition” value worked out at 67.4% and the IC50 amounted to 20.2 nM.
In the case of `CS(=O)(=O)Nc1cc(Cl)cc(NC(=O)c2cc(CN)n(-c3ccccn3)c2)c1` [Example 181], the “DHX9 Biochemical Max Inhibition” value stood at 57.4% and the IC50 amounted to 9.6 nM.
Regarding `CS(=O)(=O)Nc1cc(Cl)cc(NC(=O)c2cnn(C3CCOC3)c2)c1` (stereo not shown) [Example 182], the “DHX9 Biochemical Max Inhibition” value came out at 73.4% and the IC50 came out at 181 nM.
Consider `CN1CCN(c2cnc(-n3cc(C(=O)Nc4cc(Cl)cc(NS(C)(=O)=O)c4)cn3)nc2)CC1=O` [Example 183], for which the “DHX9 Biochemical Max Inhibition” value is 67.1% and the IC50 turned out to be 20.1 nM.
For the compound `CN1CCN(c2cnc(-n3cc(C(=O)Nc4cc(Cl)cc(NS(C)(=O)=O)c4)cn3)cn2)CC1=O` [Example 184], the “DHX9 Biochemical Max Inhibition” value is 66.3% and the IC50 came out at 19.4 nM.
In the case of `CS(=O)(=O)Nc1cc(Cl)cc(NC(=O)c2cc(-c3ncccc3OCc3cccnc3)n(CC(F)(F)F)c2)c1` [Example 185], the “DHX9 Biochemical Max Inhibition” value stood at 80.5% and the IC50 amounted to 4.7 nM.
In the case of `CS(=O)(=O)Nc1cc(Cl)cc(NC(=O)c2cnn(-c3ncccc3OCc3cncc(F)c3)c2)c1` [Example 186], the “DHX9 Biochemical Max Inhibition” value was determined as 87.9% and the IC50 came to 3.9 nM.
On the same counts, the results for `CS(=O)(=O)Nc1cc(Cl)cc(NC(=O)c2cnn(-c3ncccc3OCc3cncnc3)c2)c1` [Example 188] are 66.2% and 18.8 nM.
For `CS(=O)(=O)Nc1cc(Cl)cc(NC(=O)c2cnn(-c3ncccc3OCc3ccccc3F)c2)c1` [Example 189], the “DHX9 Biochemical Max Inhibition” value was 72.1% and the IC50 amounted to 32.7 nM.
`CS(=O)(=O)Nc1cc(Cl)cc(NC(=O)c2cnn(-c3ccc(C4CCOCC4)cn3)c2)c1` [Example 190]: the “DHX9 Biochemical Max Inhibition” value was 68.8% and the IC50 is 19.1 nM.
Regarding `CS(=O)(=O)Nc1cc(Cl)cc(NC(=O)c2cnn(-c3ccc(N4CC5CCC(C4)O5)cn3)c2)c1` [Example 191], the “DHX9 Biochemical Max Inhibition” value is given as 67.6% and the IC50 came to 4.2 nM.
On the same counts, the results for `CS(=O)(=O)Nc1cc(Cl)cc(NC(=O)c2cnn(-c3ccc(N4CCn5ccnc5C4)cn3)c2)c1` [Example 192] are 72.6% and 16.5 nM.
On to `CN1CCN(c2cnc(-n3cc(C(=O)Nc4cc(Cl)cc(NS(C)(=O)=O)c4)cn3)c(OCc3cccnc3)c2)CC1=O` [Example 193], for which the “DHX9 Biochemical Max Inhibition” value was 65.8% and the IC50 is 11.1 nM.
For `CS(=O)(=O)Nc1cc(Cl)cc(NC(=O)c2cnn(-c3ncc(N4CCOCC4)cc3OCc3cccnc3)c2)c1` [Example 194], the “DHX9 Biochemical Max Inhibition” value is 64.3% and the IC50 came out at 6.8 nM.
`CC(C)(O)COc1cccnc1-n1cc(C(=O)Nc2cc(Cl)cc(NS(C)(=O)=O)c2)cn1` [Example 195]: the “DHX9 Biochemical Max Inhibition” value is given as 67.1% and the IC50 is 35.3 nM.
Turning to `CS(=O)(=O)Nc1cc(Cl)cc(NC(=O)c2cnn(-c3ncccc3Oc3ncccn3)c2)c1` [Example 196], the “DHX9 Biochemical Max Inhibition” value is 68.9% and the IC50 worked out at 78.6 nM.
